Assays:
[1] = test system: intratumoral T-cell clonotypes (YUMM1.7ER metastases); experiment: Bulk tumor TCR-seq of tumor-involved brain and ovarian tissues; type: in vivo, mouse; details: on d3; FIG. 6B
Procedure: Total RNA was extracted from frozen tissue stored in RNALater using the QIAGEN All Prep DNA/RNA Mini Kit. RNA quality was measured using Bioanalyzer (Agilent). 710 ng-1,000 ng of RNA from ovary and brain tissues (RNA Integrity Number (RIN) score >7) was used as input to construct libraries with the QIAGEN QIAseq Immune Repertoire RNA Library Kit—T cell Receptor Panel (Qiagen). Briefly, RNA was reverse transcribed using a pool of TCR gene-specific primers against the constant region for the T cell receptor alpha, beta, gamma, and delta genes. The resulting cDNA was then ligated to an oligo containing one side of sample index and unique molecular index (UMI). […] The dual-indexed sample PCR fragment was purified and then quantified for absolute quantification of amplifiable libraries (DNA with adaptors at both ends) in triplicate by real-time qPCR using QIAGEN QIAseq Library Quant Array Kit. […] 12 μM of denatured library pool was run with QIAseq A Read1 Primer on Illumina NextSeq 500 Mid Output Kit using v2.5 chemistry for 300 cycles with an asymmetrical paired end 261/41 bp read for CDR3 region.
As reported previously (10), raw reads were submitted to the QIAGEN GeneGlobe Data Analysis Center (qiagen.com/us/shop/genes-and-pathways/data-analysis-center-overview-page/) to estimate the abundance of reads of unique CDR3 sequence and generate TCR clonotype calls. […]

[2] = test system: YUMM1.7ER-luc (Braf^V600E melanoma) intracranial and extracranial metastases; experiment: Experimental metastasis of syngeneic melanoma (intracardiac injection, BLI, survival); details: MEKi monotherapy from d0
Procedure: YUMM1.7ER melanoma cells were engineered to express firefly luciferase (YUMM1.7ER-luc). Before every IC injection, cells were selected for stable luciferase expression by blasticidin treatment, yielding cells (1 million) that emitted luciferase light units of 5e8 to 5e9 in vitro. C57BL/6 (6-8 weeks old, female), after anesthesia with vaporized isoflurane (2.0-2.5%), were injected with 1×10^6 cells/mouse into the left ventricle for intracardiac inoculation. Progression of metastatic tumor burden and treatment effects in mice were monitored in vivo and ex vivo by bioluminescent imaging (BLI). We acquired BLI on both ventral and dorsal sides twice weekly until study endpoints (total ventral or dorsal BLI signal in the range of 1e9-1e10, moribund, or death). Mice were anesthetized with vaporized isoflurane; D-luciferin (150 mg luciferin/kg, Caliper Life Sciences) dosed by intraperitoneal injections; and, 10 minutes after injections, luciferase activities were measured with IVIS Lumina II Imaging System (PerkinElmer). Image analysis was performed with Living Image 4.7.2 Version (PerkinElmer). For ex vivo BLI, mice were euthanized 10 minutes after intraperitoneal injection of D-luciferin by cervical dislocation and organs were excised and imaged ex vivo by the IVIS system. […]

[3] = test system: NRAS^MUT melanoma; details: patients with NRAS^MUT melanoma; cited from earlier work

| SMILES | Fraction of overlapping TCR clones between two distinct regions of tumor-involved brain tissues [1] | Delay of MBM [2] [weeks] | Clinical benefit (median PFS, confirmed overall response, median duration of objective response) in association with prior ICT [3] |
| --- | --- | --- | --- |
| CC(=O)Nc1cccc(-n2c(=O)n(C3CC3)c(=O)c3c(Nc4ccc(I)cc4F)n(C)c(=O)c(C)c32)c1 [Trametinib, trametinib] | 6.17-9.77% | ~1.5 |  |
| Cn1cnc2c(F)c(Nc3ccc(Br)cc3F)c(C(=O)NOCCO)cc21 [binimetinib] |  |  | greater clinical benefit |

Reference: patent US20250066480A1, “METHODS TO ENHANCE EFFICACY OF COMBINED TARGETING OF IMMUNE CHECKPOINT AND MAPK PATHWAYS” (THE REGENTS OF THE UNIVERSITY OF CALIFORNIA, priority 2021, published 2025)
